Source: PMC11758220, “Identification of a Privileged Scaffold for Inhibition of Sterol Transport Proteins through the Synthesis and Ring Distortion of Diverse, Pseudo-Natural Products” (ACS Central Science, 2025)
pKd: −log10 of the molar value.

Tests used:
[1] = target: T1, STARD4 (Homo sapiens, UniProt Q96DR4, C75S); set-up: method as in Depta et al.[43]; conditions: data reproduced; ref Depta et al.[43]; read-out: STARD4 Kd,app (DSF); cited from earlier work
T1 construct: STARD4(2-205; C75S); made in house; host or cells: E. coli BL21(DE3)
T1 sequence (Q96DR4 2-205 C75S): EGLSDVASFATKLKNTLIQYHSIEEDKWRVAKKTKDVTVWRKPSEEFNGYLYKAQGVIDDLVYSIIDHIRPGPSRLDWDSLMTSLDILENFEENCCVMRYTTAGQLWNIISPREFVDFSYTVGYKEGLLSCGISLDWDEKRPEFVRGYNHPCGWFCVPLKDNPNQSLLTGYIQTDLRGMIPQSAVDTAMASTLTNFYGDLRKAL

[2] = target: T2, STARD1 (Homo sapiens, UniProt P49675); experiment: Effect on intrinsic protein fluorescence, STARD1; conditions: protein 1 µM, excitation 280 nm
T2 construct: STARD1(66-284); made in house; host or cells: E. coli BL21(DE3)
T2 sequence (P49675 66-284): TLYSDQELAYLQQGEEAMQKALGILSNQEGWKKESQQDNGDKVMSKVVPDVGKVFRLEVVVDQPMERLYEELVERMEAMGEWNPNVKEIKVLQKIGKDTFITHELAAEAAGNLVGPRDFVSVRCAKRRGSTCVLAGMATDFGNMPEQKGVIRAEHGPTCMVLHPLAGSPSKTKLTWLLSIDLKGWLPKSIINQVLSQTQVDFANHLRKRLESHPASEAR
Protocol: (§1) Effect of spirooxepinoindoles on intrinsic protein fluorescence
(§2) Figure S12: Spirooxepinoindoles 21a and 15f affect intrinsic protein fluorescence in dose-dependent fashion:
(§3) Respective proteins (1 µM) were incubated with the compounds at different doses. Proteins were excited at 280 ± 10 nm and fluorescence spectra were measured from 315 ± 20 nm to 600 ± 20 nm with a step size of 2 nm. A) STARD1 and 21a. B) ORP1 and 21a. C) ORP2 and 21a. D) ORP2 and 15f.
(§4) (1 picture or pasted object on this page, not shown here)
(§5) Superdex 75 pg (Cytiva) using an ÄKTA Explorer (Cytiva) in buffer containing 10 mM Tris -HCl, pH 8, 150 mM NaCl, 5 % glycerol and 2 mM DTT.
(§6) Fluorescence intensity and polarisation
(§7) Fluorescence intensity and polarisation (FP) experiments were performed in a buffer containing 20 mM HEPES pH 7.5, 300 mM NaCl, 0.01 %v/v Tween-20, 0.5% glycerol and 2 mM DTT in a final volume of 30 µl in black, flat-bottom, non-binding 384-well plates (Corning). All compounds were dispensed using the LabCyte Echo 550 Liquid handler. […] For competition experiments, 20 nM 22-NBD-cholesterol or 80 nM 25-NBD-cholesterol was mixed with protein and incubated with desired concentrations of screening compounds (Table S4) The fluorescence polarisation signal was measured using a Spark Cyto multimode microplate reader (Tecan) with filters set at 485 ± 20 nm for excitation and at 535 ± 20 nm for emission. […]

[3] = target: T3, ORP1 (Homo sapiens, UniProt Q9BXW6); experiment: Effect on intrinsic protein fluorescence, ORP1; conditions: protein 1 µM, excitation 280 nm
T3 construct: ORP1(534-950); host or cells: E. coli BL21(DE3)
T3 sequence (Q9BXW6 534-950): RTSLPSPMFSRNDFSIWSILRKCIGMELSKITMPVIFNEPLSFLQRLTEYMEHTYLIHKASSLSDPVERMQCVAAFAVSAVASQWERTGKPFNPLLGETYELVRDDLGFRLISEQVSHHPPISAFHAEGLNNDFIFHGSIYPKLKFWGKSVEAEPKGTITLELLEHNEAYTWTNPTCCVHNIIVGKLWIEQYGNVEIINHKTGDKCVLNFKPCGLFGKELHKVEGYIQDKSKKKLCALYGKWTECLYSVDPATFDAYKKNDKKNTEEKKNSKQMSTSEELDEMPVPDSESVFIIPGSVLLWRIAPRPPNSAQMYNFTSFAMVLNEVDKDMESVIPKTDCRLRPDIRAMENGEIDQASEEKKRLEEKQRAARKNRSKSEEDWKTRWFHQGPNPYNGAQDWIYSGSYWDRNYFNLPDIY
Protocol: as §1, §2, §3, §4, §5, §6, §7

| SMILES | pKd [1] | Quenching of intrinsic fluorescence of STARD1 [2] | Quenching of intrinsic fluorescence of ORP1 [3] |
| --- | --- | --- | --- |
| CCN(CC)CCO[C@H]1CC[C@@]2(C)C(=CC[C@@H]3[C@@H]2CC[C@]2(C)C(=O)CC[C@@H]32)C1 [Compound U18666A, reference compound] | < 4.52 |  |  |
| C[C@]12CC[C@@H]3C[C@H]1CC[C@@]21C(=Nc2ccc(-c4ccccc4)cc21)O3 [Compound 21a] |  | dose-dependently quenches | dose-dependently quenches |
